Some test systems named below: SNB-78 CNS; XF 498 CNS; DMS 273 small cell lung; RXF-631 renal; DMS 114 small cell lung.
What all share (assay): growth of human tumour cells (NCI), 48 h

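How tested: cells in 96-well plates exposed to compound for 48 hours at five concentrations. TGI: total growth inhibition.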 Where only a bound is given, the exact number is not on record here.

`CC(=S)NNC(=O)c1ccncc1`: the TGI in the assay on SNB-78 CNS, with XF 498 CNS and in the assay on DMS 273 small cell lung was more than 100 µM in each case.
As for `CNS(=O)(=O)NN(C)S(=O)(=O)c1ccc(Br)cc1`, the TGI with RXF-631 renal, in the assay with DMS 114 small cell lung, in the assay on XF 498 CNS and in the assay on DMS 273 small cell lung was more than 100 µM throughout.
`Cc1ccc(S(=O)(=O)OCC23CCC(C4CC42)C2CC23)cc1` (centres undefined): the TGI in the assay with RXF-631 renal, in the assay with DMS 114 small cell lung and in the assay with DMS 273 small cell lung was more than 100 µM throughout.
On to `CN(C)CCCn1c2c3ccccc3ccc2c2oc(=O)c3ccccc3c21`, for which the TGI in the assay on SNB-78 CNS is 39 µM; in the assay with DMS 114 small cell lung, 4.09 µM; in the assay on XF 498 CNS it was 9.55 µM; with DMS 273 small cell lung, 4.22 µM.
On to `O=C(c1ccc(Cl)cc1)N(C(=S)N1CCN(c2ccccc2)CC1)c1ccccc1`, for which the TGI in the assay on SNB-78 CNS and with DMS 273 small cell lung was more than 100 µM throughout.
On to `O=C1NC2(O)c3ccccc3C(=O)C2(O)N1c1ccccc1` (centres undefined), for which the TGI in the assay with RXF-631 renal, with DMS 114 small cell lung and with XF 498 CNS was more than 100 µM throughout.

The values are drawn from PubChem BioAssay (NCI).
